Test results: ChEMBL document CHEMBL5154930, “Design, Synthesis, and Biological Evaluations of DOT1L Peptide Mimetics Targeting the Protein-Protein Interactions between DOT1L and MLL-AF9/MLL-ENL” (J Med Chem, 2022)
Non-standard residues stand in square brackets, D forms with d. Residues, ends and D or L forms follow the SMILES beside them. *: point of attachment. X6 = c1ccc(C[C@H](N*)c2nc3cccc(-c4ccccc4)c3[nH]2)cc1; X7 = CC[C@H](C)[C@H](N*)c1nc2cccc(-c3ccccc3)c2[nH]1; X3 = CC(C)C[C@H](N*)c1nc2cccc(-c3ccccc3)c2[nH]1; X5 = c1ccc(-c2cccc3nc([C@@H]4CCCN4*)[nH]c23)cc1; X4 = CC(C)[C@H](N*)c1nc2cccc(-c3ccccc3)c2[nH]1; X1 = C[C@H](N*)c1nc2cccc(-c3ccccc3)c2[nH]1; Ala(cPent) = N[C@@H](CC1CCCC1)C(=O)O; Pentanoyl(4-Me) = CC(C)CCC(=O)*; Dap(Me) = CNC[C@H](N)C(=O)O; Dap = NC[C@H](N)C(=O)O; Bz = O=C(c1ccccc1)*

Columns and labels:
Protein AF-9 = target: T1, Protein AF-9 (Homo sapiens, UniProt P42568); experiment: Binding affinity to MBP-tagged human recombinant AF9 (487 to 568 residues) incubated for 40 mins by measuring fluorescence polarization by microplate reader method
T1 sequence (P42568 whole entry): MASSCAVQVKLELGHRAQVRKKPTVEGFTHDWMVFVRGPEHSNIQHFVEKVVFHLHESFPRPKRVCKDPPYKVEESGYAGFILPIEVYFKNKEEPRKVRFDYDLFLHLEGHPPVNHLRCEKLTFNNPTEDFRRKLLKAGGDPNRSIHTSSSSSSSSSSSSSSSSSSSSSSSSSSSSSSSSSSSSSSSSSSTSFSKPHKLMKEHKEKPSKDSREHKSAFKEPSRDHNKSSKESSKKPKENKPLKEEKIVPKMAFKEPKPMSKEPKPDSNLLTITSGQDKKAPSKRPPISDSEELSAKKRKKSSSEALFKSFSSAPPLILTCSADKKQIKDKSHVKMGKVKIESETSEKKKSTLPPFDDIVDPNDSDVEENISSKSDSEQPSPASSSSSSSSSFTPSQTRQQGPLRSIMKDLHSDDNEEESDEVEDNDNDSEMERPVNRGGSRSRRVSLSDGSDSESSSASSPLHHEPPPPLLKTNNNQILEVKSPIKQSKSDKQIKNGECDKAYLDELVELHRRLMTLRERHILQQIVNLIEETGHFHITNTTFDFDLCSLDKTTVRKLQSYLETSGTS

MOLM-13 [1] = experiment: cells; details: Homo sapiens, MOLM-13, 192 h
Description: Anticancer activity against human MOLM-13 cells harbouring MLL-AF9 assessed as inhibition of cell growth treated for 8 days measured by CCK-8 kit method

KOPN-8 = experiment: cells; details: Homo sapiens, KOPN-8, 192 h
Description: Anticancer activity against human KOPN-8 cells harbouring MLL-ENL assessed as inhibition of cell growth treated for 8 days measured by CCK-8 kit method

MOLM-13 [2] = experiment: cells; details: Homo sapiens, MOLM-13, 144 h
Description: Anticancer activity against human MOLM-13 cells harbouring MLL-AF9 assessed as inhibition of cell growth treated for 6 days measured by CCK-8 kit method

[3] = Stability in human plasma assessed as compound remaining measured upto 1440 mins by HPLC analysis; format: ADME, cell-free; details: read-out: Stability
MOLM-13 [4] = experiment: cells; details: Homo sapiens, MOLM-13, 96 h
Description: Anticancer activity against human MOLM-13 cells harbouring MLL-AF9 assessed as inhibition of cell growth treated for 4 days measured by CCK-8 kit method

MOLM-13 [5] = experiment: cells; details: Homo sapiens, MOLM-13, 120 h
Description: Anticancer activity against human MOLM-13 cells harbouring MLL-AF9 assessed as inhibition of cell growth treated for 5 days measured by CCK-8 kit method

MOLM-13 [6] = experiment: cells; details: Homo sapiens, MOLM-13, 168 h
Description: Anticancer activity against human MOLM-13 cells harbouring MLL-AF9 assessed as inhibition of cell growth treated for 7 days measured by CCK-8 kit method

K562 = experiment: Anticancer activity against human K562 cells assessed as inhibition of cell growth treated for 8 days measured by CCK-8 kit method; format: functional, cell-based; details: K562, 192 h
RS4-11 = experiment: Anticancer activity against human RS4-11 cells assessed as inhibition of cell growth treated for 8 days measured by CCK-8 kit method; format: functional, cell-based; details: RS4-11, 192 h
MV4-11 = experiment: Anticancer activity against human MV4-11 cells assessed as inhibition of cell growth treated for 8 days measured by CCK-8 kit method; format: functional, cell-based; details: MV4-11, 192 h
[7] = Apparent permeability across apical to basolateral side in human Caco-2 cells; format: ADME, cell-based
MOLM-13 [8] = experiment: cells; details: Homo sapiens, MOLM-13, 216 h
Description: Anticancer activity against human MOLM-13 cells harbouring MLL-AF9 assessed as inhibition of cell growth treated for 9 days measured by CCK-8 kit method

Row | SMILES | Ki (Protein AF-9) | IC50 (MOLM-13 [1]) | IC50 (KOPN-8) | further results
1 | CC(=O)N[C@@H](CC(C)C)C(=O)N1CCC[C@H]1C(=O)N[C@H](C(=O)N[C@@H](CN)C(=O)N[C@@H](CC1CCCC1)C(=O)N1CCC[C@H]1c1nc2cccc(-c3ccccc3)c2[nH]1)C(C)C (Ac-LPV[Dap][Ala(cPent)]-X5) | 22 nM | 500 nM | 680 nM | –
2 | CC(=O)N[C@@H](CC(C)C)C(=O)N1CCC[C@H]1C(=O)N[C@H](C(=O)N[C@@H](CN)C(=O)N[C@@H](CC1CCCC1)C(=O)N[C@@H](Cc1ccccc1)c1nc2cccc(-c3ccccc3)c2[nH]1)C(C)C (Ac-LPV[Dap][Ala(cPent)]-X6) | 13 nM | 440 nM | 410 nM | –
3 | CNC[C@H](NC(=O)[C@@H](NC(=O)[C@@H]1CCCN1C(=O)c1ccccc1)C(C)C)C(=O)N[C@@H](CC1CCCC1)C(=O)N[C@@H](C)c1nc2cccc(-c3ccccc3)c2[nH]1 (Bz-PV[Dap(Me)][Ala(cPent)]-X1) | 32 nM | 740 nM | 670 nM | –
4 | CC(C)[C@H](NC(=O)[C@@H]1CCCN1C(=O)c1ccccc1)C(=O)N[C@@H](CN)C(=O)N[C@@H](CC1CCCC1)C(=O)N[C@@H](C)c1nc2cccc(-c3ccccc3)c2[nH]1 (Bz-PV[Dap][Ala(cPent)]-X1) | 15 nM | 310 nM | 330 nM | –
5 | CC(C)CCC(=O)N1CCC[C@H]1C(=O)N[C@H](C(=O)N[C@@H](CN)C(=O)N[C@@H](CC1CCCC1)C(=O)N[C@@H](C)c1nc2cccc(-c3ccccc3)c2[nH]1)C(C)C ({Pentanoyl(4-Me)}-PV[Dap][Ala(cPent)]-X1) | 9 nM | 150 nM | 190 nM | IC50 (MOLM-13 [2]): 589 nM; remaining at 24 h [3]: 83%; IC50 (MOLM-13 [4]): 1290 nM; IC50 (MOLM-13 [5]): 932 nM; IC50 (MOLM-13 [6]): 257 nM; IC50 (K562): 33000 nM; IC50 (RS4-11): 380 nM; IC50 (MV4-11): 140 nM; Papp A→B [7]: 1.82 ×10⁻⁶ cm/s; IC50 (MOLM-13 [8]): 94 nM
6 | CC(C)(C)NCC(O)COc1cccc2c1CC(O)C(O)C2 (stereo not drawn) [NADOLOL] | – | – | – | remaining at 24 h [3]: 97.1%; Papp A→B [7]: 0.13 ×10⁻⁶ cm/s
7 | CC(C)NCC(O)COc1cccc2ccccc12 (stereo not drawn) [PROPRANOLOL] | – | – | – | remaining at 24 h [3]: 72.9%; Papp A→B [7]: 18.5 ×10⁻⁶ cm/s

Further lines, with some results ahead:

Row | Ki (Protein AF-9) | IC50 (MOLM-13 [1]) | IC50 (KOPN-8) | SMILES | further results
8 | 160 nM | – | – | CC[C@@H](C)[C@H](NC(=O)[C@@H]1CCCN1C(=O)[C@H](CC(C)C)NC(C)=O)C(=O)N[C@@H](CO)C(=O)N[C@H](C(=O)N1CCC[C@H]1C(=O)N[C@@H](CC(C)C)C(=O)N(C)C)[C@@H](C)CC | –
9 | 17 nM | 460 nM | 440 nM | CC(=O)N[C@@H](CC(C)C)C(=O)N1CCC[C@H]1C(=O)N[C@H](C(=O)N[C@@H](CN)C(=O)N[C@@H](CC1CCCC1)C(=O)N[C@@H](C)c1nc2cccc(-c3ccccc3)c2[nH]1)C(C)C (Ac-LPV[Dap][Ala(cPent)]-X1) | –
10 | 19 nM | 490 nM | 430 nM | CC(=O)N[C@@H](CC(C)C)C(=O)N1CCC[C@H]1C(=O)N[C@H](C(=O)N[C@@H](CN)C(=O)N[C@@H](CC1CCCC1)C(=O)N[C@@H](CC(C)C)c1nc2cccc(-c3ccccc3)c2[nH]1)C(C)C (Ac-LPV[Dap][Ala(cPent)]-X3) | –
11 | 29 nM | 640 nM | 750 nM | CC(=O)N[C@@H](CC(C)C)C(=O)N1CCC[C@H]1C(=O)N[C@H](C(=O)N[C@@H](CN)C(=O)N[C@@H](CC1CCCC1)C(=O)N[C@H](c1nc2cccc(-c3ccccc3)c2[nH]1)C(C)C)C(C)C (Ac-LPV[Dap][Ala(cPent)]-X4) | –
12 | 23 nM | 610 nM | 480 nM | CC[C@H](C)[C@H](NC(=O)[C@H](CC1CCCC1)NC(=O)[C@H](CN)NC(=O)[C@@H](NC(=O)[C@@H]1CCCN1C(=O)[C@H](CC(C)C)NC(C)=O)C(C)C)c1nc2cccc(-c3ccccc3)c2[nH]1 (Ac-LPV[Dap][Ala(cPent)]-X7) | –
13 | 160 nM | – | – | CC[C@H](C)[C@H](NC(=O)[C@H](CO)NC(=O)[C@@H](NC(=O)[C@@H]1CCCN1C(=O)[C@H](CC(C)C)NC(C)=O)C(C)C)C(=O)N1CCC[C@H]1C(=O)N[C@@H](CC(C)C)C(=O)N(C)C (HELM PEPTIDE1{[ac].L.P.V.S.I.P.L.[CN(C)[*:1]]}$$$$V2.0) | –
